The target in test [1] is T1, HiBit-BRG1 fusion protein (Homo sapiens, UniProt P51532).
T1 construct: expressed in transfected cells
The test can be described thus: HiBiT-BRG1 cell-based degradation assay (Nano-Glo HiBiT Lytic Detection, 24 h). To be noted: HeLa cells expressing HiBit-BRG1 and LgBit; for DC50: read-out: BRG1 HiBit Degradation IC50; for Dmax: HeLa, top dose 30 μM, read-out: BRG1 HiBit Degradation Maximum measured. The method, boiled down:
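Degradation is scaled from DMSO-treated cells (0%) to cells given 2 μM of a known BRM/BRG1 degrader (100%). HeLa cells stably carrying HiBiT-BRG1 plus LgBiT (5000/well) were lysed with Nano-Glo HiBiT detection reagent, shaken 10 min at RT, and luminescence read.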

The target of a further test is T2, HiBit-BRM fusion protein (Homo sapiens, UniProt P51531).
T2 construct: expressed in transfected cells
T2 sequence (P51531 whole entry, the tested form may be a part): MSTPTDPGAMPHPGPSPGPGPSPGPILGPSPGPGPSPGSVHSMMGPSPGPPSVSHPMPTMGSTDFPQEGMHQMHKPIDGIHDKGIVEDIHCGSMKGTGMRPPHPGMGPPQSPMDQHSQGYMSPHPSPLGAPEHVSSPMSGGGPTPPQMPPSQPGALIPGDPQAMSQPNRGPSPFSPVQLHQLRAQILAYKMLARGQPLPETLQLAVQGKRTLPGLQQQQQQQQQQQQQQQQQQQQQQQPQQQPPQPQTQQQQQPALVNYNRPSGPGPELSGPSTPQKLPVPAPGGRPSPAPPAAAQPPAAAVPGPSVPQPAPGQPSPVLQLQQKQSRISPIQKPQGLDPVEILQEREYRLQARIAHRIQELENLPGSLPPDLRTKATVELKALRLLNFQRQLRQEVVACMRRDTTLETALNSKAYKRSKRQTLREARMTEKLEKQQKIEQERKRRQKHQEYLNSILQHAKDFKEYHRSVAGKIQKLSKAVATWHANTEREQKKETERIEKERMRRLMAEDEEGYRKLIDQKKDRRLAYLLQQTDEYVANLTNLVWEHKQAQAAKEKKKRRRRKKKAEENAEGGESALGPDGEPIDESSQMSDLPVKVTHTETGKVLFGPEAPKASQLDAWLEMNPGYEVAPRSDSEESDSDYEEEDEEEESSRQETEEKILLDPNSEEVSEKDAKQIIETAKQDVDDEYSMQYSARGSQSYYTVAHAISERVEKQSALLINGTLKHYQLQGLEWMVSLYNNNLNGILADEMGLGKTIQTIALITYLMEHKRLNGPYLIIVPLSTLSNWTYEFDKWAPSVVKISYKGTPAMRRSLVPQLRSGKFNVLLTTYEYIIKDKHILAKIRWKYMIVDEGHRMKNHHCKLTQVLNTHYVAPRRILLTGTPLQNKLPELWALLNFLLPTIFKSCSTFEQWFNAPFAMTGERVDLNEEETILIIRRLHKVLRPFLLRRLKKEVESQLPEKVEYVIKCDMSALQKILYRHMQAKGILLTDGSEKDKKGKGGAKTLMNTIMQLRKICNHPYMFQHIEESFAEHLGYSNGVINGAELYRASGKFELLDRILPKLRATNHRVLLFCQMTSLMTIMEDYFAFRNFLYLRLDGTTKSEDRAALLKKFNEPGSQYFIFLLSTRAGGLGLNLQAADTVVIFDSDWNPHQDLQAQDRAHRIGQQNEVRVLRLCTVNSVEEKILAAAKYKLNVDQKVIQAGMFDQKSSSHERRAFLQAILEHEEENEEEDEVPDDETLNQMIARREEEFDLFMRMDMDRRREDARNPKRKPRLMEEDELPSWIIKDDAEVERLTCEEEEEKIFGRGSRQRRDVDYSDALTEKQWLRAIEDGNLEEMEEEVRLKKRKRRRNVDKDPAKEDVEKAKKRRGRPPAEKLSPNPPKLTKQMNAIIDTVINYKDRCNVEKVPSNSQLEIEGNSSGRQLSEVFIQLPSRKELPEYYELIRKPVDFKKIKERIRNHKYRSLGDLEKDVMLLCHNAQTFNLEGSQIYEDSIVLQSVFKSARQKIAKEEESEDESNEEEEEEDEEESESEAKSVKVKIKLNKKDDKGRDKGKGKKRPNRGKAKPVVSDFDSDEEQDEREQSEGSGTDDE
The test can be described thus: HiBiT-BRM cell-based degradation assay (Nano-Glo HiBiT Lytic Detection, 24 h). The conditions noted are these: HeLa cells expressing HiBiT-BRM; for DC50: read-out: BRM HiBit Degradation IC50; for BRM HiBit Degradation Maximum measured: top dose 30 μM. In outline:
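Residual HiBiT-BRM in a stable HeLa line was measured by Nano-Glo lytic luminescence after 24 h compound exposure (top final dose 30 μM, 3-fold, 10 points, duplicate). Values are % degradation, scaled between DMSO-treated cells and cells given 2 μM of a known BRM/BRG1 degrader.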

Structures are written as SMILES.

Results on 14 compounds are retold here after patent US12662479B2 (Foghorn Therapeutics Inc., priority 2020, dated 2026).

T1 sequence (P51532 whole entry, the tested form may be a part): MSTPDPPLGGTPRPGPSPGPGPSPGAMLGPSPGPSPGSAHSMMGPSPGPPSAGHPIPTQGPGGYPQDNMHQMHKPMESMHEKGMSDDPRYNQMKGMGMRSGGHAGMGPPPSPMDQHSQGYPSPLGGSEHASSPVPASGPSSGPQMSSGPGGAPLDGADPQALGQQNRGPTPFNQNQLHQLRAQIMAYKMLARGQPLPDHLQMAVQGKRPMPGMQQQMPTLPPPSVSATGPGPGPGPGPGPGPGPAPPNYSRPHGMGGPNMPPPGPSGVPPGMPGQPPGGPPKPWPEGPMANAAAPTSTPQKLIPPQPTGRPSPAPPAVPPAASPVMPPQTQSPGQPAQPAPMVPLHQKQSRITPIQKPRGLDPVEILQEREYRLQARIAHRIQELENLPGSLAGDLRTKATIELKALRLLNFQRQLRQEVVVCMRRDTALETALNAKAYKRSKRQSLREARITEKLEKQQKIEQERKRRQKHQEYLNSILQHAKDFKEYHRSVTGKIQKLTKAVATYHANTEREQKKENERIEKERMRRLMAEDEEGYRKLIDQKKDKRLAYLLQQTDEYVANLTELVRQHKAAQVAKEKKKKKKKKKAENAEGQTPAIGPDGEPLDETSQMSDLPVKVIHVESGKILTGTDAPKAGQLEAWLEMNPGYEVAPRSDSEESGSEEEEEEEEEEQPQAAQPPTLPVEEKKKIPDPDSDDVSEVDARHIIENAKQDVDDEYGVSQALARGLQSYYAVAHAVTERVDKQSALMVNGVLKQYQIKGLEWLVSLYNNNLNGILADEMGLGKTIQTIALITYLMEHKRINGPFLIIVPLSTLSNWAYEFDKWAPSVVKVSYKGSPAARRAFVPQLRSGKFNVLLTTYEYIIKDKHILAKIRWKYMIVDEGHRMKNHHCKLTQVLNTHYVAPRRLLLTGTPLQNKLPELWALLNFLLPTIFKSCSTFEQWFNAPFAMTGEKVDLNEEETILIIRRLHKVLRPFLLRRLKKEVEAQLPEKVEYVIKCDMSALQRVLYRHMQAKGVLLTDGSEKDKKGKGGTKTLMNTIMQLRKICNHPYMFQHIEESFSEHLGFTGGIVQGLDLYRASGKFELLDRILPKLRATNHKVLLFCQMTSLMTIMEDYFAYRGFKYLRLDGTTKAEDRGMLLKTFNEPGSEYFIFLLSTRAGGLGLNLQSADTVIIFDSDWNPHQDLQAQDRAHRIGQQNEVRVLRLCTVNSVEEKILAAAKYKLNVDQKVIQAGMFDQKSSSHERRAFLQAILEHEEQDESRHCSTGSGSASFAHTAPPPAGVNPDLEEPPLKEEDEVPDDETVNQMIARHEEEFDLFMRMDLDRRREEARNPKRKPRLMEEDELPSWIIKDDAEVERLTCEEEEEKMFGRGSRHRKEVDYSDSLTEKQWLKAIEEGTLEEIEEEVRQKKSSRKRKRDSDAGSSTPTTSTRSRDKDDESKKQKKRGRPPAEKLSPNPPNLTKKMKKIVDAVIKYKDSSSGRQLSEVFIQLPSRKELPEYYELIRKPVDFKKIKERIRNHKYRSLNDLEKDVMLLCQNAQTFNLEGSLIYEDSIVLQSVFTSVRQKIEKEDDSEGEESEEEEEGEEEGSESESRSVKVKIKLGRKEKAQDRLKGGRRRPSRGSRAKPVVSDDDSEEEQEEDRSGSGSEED

For the compound `CS(=O)(=O)n1ccc(C(=O)N[C@@H](CCOCCCC(=O)NCCOCCOCCOCCNC(=O)COc2ccc3c(c2)C(=O)N(C2CCC(=O)NC2=O)C3=O)C(=O)Nc2nc(-c3ccccc3)cs2)c1` (stereo partly drawn) [Compound 273, (2S)-4-(3-[[2-(2-[2-[2-(2-[[2-(2,6-dioxopiperidin-3-yl)-1,3-dioxoisoindol-5-yl]oxy]acetamido)ethoxy]ethoxy]ethoxy)ethyl]carbamoyl]propoxy)-2-[(1-methanesulfonylpyrrol-3-yl)formamido]-N-(4-phenyl-1,3-thiazol-2-yl)butanamide], in test [1], the DC50 is greater than 10 µM and the Dmax was less than 50%. At HiBit-BRM fusion protein, the DC50 was greater than 10 µM and the “BRM HiBit Degradation Maximum measured” value is listed as “C (‘C’ = Maximum degradation <50%)”.

For the compound `CS(=O)(=O)n1ccc(C(=O)N[C@@H](CCOCCCC(=O)NCCOc2cccc(OCCNc3cccc4c3C(=O)N(C3CCC(=O)NC3=O)C4=O)c2)C(=O)Nc2nc(-c3ccccc3)cs2)c1` (stereo partly drawn) [Compound 270, (2S)-4-[3-([2-[3-(2-[[2-(2,6-dioxopiperidin-3-yl)-1,3-dioxoisoindol-4-yl]amino]ethoxy)phenoxy]ethyl]carbamoyl)propoxy]-2-[(1-methanesulfonylpyrrol-3-yl)formamido]-N-(4-phenyl-1,3-thiazol-2-yl)butanamide], in test [1], the DC50 is greater than 10 µM and the Dmax was less than 50%. Besides, at HiBit-BRM fusion protein, the DC50 is greater than 10 µM and the “BRM HiBit Degradation Maximum measured” value was “C (‘C’ = Maximum degradation <50%)”.

In the case of `CS(=O)(=O)n1ccc(C(=O)NCC(=O)Nc2nc(C3CCCN(C(=O)CCOCCOCCOc4ccc5c(c4)C(=O)N(C4CCC(=O)NC4=O)C5=O)C3)cs2)c1` (centres unmarked) [Compound 144, N-[4-(1-{3-[2-(2-{[2-(2,6-dioxopiperidin-3-yl)-1,3-dioxo-2,3-dihydro-1H-isoindol-5-yl]oxy}ethoxy)ethoxy]propanoyl}piperidin-3-yl)-1,3-thiazol-2-yl]-2-[(1-methanesulfonyl-1H-pyrrol-3-yl)formamido]acetamide], in test [1], the DC50 is greater than 10 µM and the Dmax was less than 50%. At HiBit-BRM fusion protein, the DC50 is greater than 10 µM and the “BRM HiBit Degradation Maximum measured” value is listed as “C (‘C’ = Maximum degradation <50%)”.

For the compound `CN(CCNc1ccc2c(c1)C(=O)N(C1CCC(=O)NC1=O)C2=O)C(=O)C1(c2cc(-c3cccc(-c4csc(NC(=O)CNC(=O)c5ccn(S(C)(=O)=O)c5)n4)c3)ccn2)CC1` (centres unmarked) [Compound 162, N-(2-[[2-(2,6-dioxopiperidin-3-yl)-1,3-dioxoisoindol-5-yl]amino]ethyl)-1-[4-[3-(2-[2-[(1-methanesulfonylpyrrol-3-yl)formamido]acetamido]-1,3-thiazol-4-yl)phenyl]pyridin-2-yl]-N-methylcyclopropane-1-carboxamide], in test [1], the DC50 is greater than 10 µM and the Dmax is less than 50%. In addition, at HiBit-BRM fusion protein, the DC50 is greater than 10 µM and the “BRM HiBit Degradation Maximum measured” value is recorded as “C (‘C’ = Maximum degradation <50%)”.

Consider `CS(=O)(=O)n1ccc(C(=O)N[C@@H](COCc2ccc(C(=O)NCCOc3cccc(OCCNc4cccc5c4C(=O)N(C4CCC(=O)NC4=O)C5=O)c3)cc2)C(=O)Nc2nc(-c3ccccc3)cs2)c1` (stereo partly drawn) [Compound 206, N-[2-[3-(2-[[2-(2,6-dioxopiperidin-3-yl)-1,3-dioxoisoindol-4-yl]amino]ethoxy)phenoxy]ethyl]-4-[[(2S)-2-[(1-methanesulfonylpyrrol-3-yl)formamido]-2-[(4-phenyl-1,3-thiazol-2-yl)carbamoyl]ethoxy]methyl]benzamide], for which, in test [1], the DC50 is greater than 10 µM and the Dmax was less than 50%. On HiBit-BRM fusion protein, the DC50 is greater than 10 µM and the “BRM HiBit Degradation Maximum measured” value is “C (‘C’ = Maximum degradation <50%)”.

`Cc1ncsc1-c1ccc(CNC(=O)[C@@H]2C[C@@H](O)CN2C(=O)[C@@H](NC(=O)CCCCCCCCCNC(=O)CN(C)c2cc(-c3cccc(-c4csc(NC(=O)CNC(=O)c5ccn(S(C)(=O)=O)c5)n4)c3)ccn2)C(C)(C)C)cc1` [Compound 47]: in test [1], the DC50 was less than 0.1 µM and the Dmax lay within 50 to 75%. Further, at HiBit-BRM fusion protein, the DC50 was less than 0.1 µM; the “BRM HiBit Degradation Maximum measured” value was “B (‘B’ = Maximum degradation ≥50% and ≤75%)”.

Turning to `Cc1ncsc1-c1ccc(CNC(=O)[C@@H]2C[C@@H](O)CN2C(=O)[C@@H](NC(=O)CCCCCCC(=O)NCc2cc(-c3cccc(-c4csc(NC(=O)CNC(=O)c5ccn(S(C)(=O)=O)c5)n4)c3)ccn2)C(C)(C)C)cc1` [Compound 142], in test [1], the DC50 is greater than 10 µM and the Dmax was less than 50%. Besides, on HiBit-BRM fusion protein, the DC50 is greater than 10 µM and the “BRM HiBit Degradation Maximum measured” value is “C (‘C’ = Maximum degradation <50%)”.

For the compound `CS(=O)(=O)n1ccc(C(=O)NCC(=O)Nc2nc(-c3cccc(-c4cccc(CNC(=O)CCCCCCCCCCNc5cccc6c5C(=O)N(C5CCC(=O)NC5=O)C6=O)c4)c3)cs2)c1` (centres unmarked) [Compound 51, N-[2-[[4-[3-[3-[[11-[[2-(2,6-dioxo-3-piperidyl)-1,3-dioxo-isoindolin-4-yl]amino]undecanoylamino]methyl]-phenyl]phenyl]thiazol-2-yl]amino]-2-oxo-ethyl]-1-methylsulfonyl-pyrrole-3-carboxamide], in test [1], the DC50 lay in the range of 0.1 to 1 µM and the Dmax lay in the range of 50 to 75%. For the same compound, on HiBit-BRM fusion protein, the DC50 is greater than 10 µM and the “BRM HiBit Degradation Maximum measured” value is given as “C (‘C’ = Maximum degradation <50%)”.

In the case of `CN(CC(=O)NCCCCCCCCNC(=O)COc1cccc2c1C(=O)N(C1CCC(=O)NC1=O)C2=O)c1cc(-c2cccc(-c3csc(NC(=O)CNC(=O)c4ccn(S(C)(=O)=O)c4)n3)c2)ccn1` (centres unmarked) [Compound 15, N-(2-((4-(3-(2-((2-((8-(2-((2-(2,6-dioxopiperidin-3-yl)-1,3-dioxoisoindolin-4-yl)oxy)acetamido)octyl)amino)-2-oxoethyl)(methyl)amino)pyridin-4-yl)phenyl)thiazol-2-yl)amino)-2-oxoethyl)-1-(methylsulfonyl)-1H-pyrrole-3-carboxamide], in test [1], the DC50 is greater than 10 µM and the Dmax was less than 50%. For the same compound, on HiBit-BRM fusion protein, the DC50 is greater than 10 µM and the “BRM HiBit Degradation Maximum measured” value is “C (‘C’ = Maximum degradation <50%)”.

Regarding `CS(=O)(=O)n1ccc(C(=O)NCC(=O)Nc2nc(C3CCCN(C(=O)CCCCCCCCCCNc4ccc5c(c4)C(=O)N(C4CCC(=O)NC4=O)C5=O)C3)cs2)c1` (centres unmarked) [Compound 143, N-{4-[1-(11-{[2-(2,6-dioxopiperidin-3-yl)-1,3-dioxo-2,3-dihydro-1H-isoindol-5-yl]amino}undecanoyl)piperidin-3-yl]-1,3-thiazol-2-yl}-2-[(1-methanesulfonyl-1H-pyrrol-3-yl)formamido]acetamide], in test [1], the DC50 is greater than 10 µM and the Dmax is less than 50%. Moreover, at HiBit-BRM fusion protein, the DC50 is greater than 10 µM and the “BRM HiBit Degradation Maximum measured” value is “C (‘C’ = Maximum degradation <50%)”.

Turning to `CS(=O)(=O)n1ccc(C(=O)NCC(=O)Nc2nc(-c3cccc(-c4ccnc(C5(C(=O)N6CCN(CCCOc7ccc8c(c7)C(=O)N(C7CCC(=O)NC7=O)C8=O)CC6)CC5)c4)c3)cs2)c1` (centres unmarked) [Compound 135, N-[4-[3-(2-[1-[4-(3-[[2-(2,6-dioxopiperidin-3-yl)-1,3-dioxoisoindol-5-yl]oxy]propyl)piperazine-1-carbonyl]cyclopropyl]pyridin-4-yl)phenyl]-1,3-thiazol-2-yl]-2-[(1-methanesulfonylpyrrol-3-yl)formamido]acetamide], in test [1], the DC50 lay in the range of 0.1 to 1 µM and the Dmax was greater than 75%. At HiBit-BRM fusion protein, the DC50 fell in the range of 0.1 to 1 µM; the “BRM HiBit Degradation Maximum measured” value is “B (‘B’ = Maximum degradation ≥50% and ≤75%)”.

On to `CS(=O)(=O)n1ccc(C(=O)NCC(=O)Nc2nc(-c3cccc(-c4ccnc(N5CCN(C(=O)CCOCCOCCOc6ccc7c(c6)C(=O)N(C6CCC(=O)NC6=O)C7=O)CC5)c4)c3)cs2)c1` (centres unmarked) [Compound 73, N-[2-[[4-[3-[2-[4-[3-[2-[2-[2-(2,6-dioxo-3-piperidyl)-1,3-dioxo-isoindolin-5-yl]oxyethoxy]ethoxy]propanoyl]piperazin-1-yl]-4-pyridyl]phenyl]thiazol-2-yl]amino]-2-oxo-ethyl]-1-methylsulfonyl-pyrrole-3-carboxamide], for which, in test [1], the DC50 fell in the range of 0.1 to 1 µM and the Dmax is greater than 75%. For the same compound, on HiBit-BRM fusion protein, the DC50 was 0.1 to 1 µM and the “BRM HiBit Degradation Maximum measured” value is on record as “A (‘A’ = Maximum degradation >75%)”.

Consider `CS(=O)(=O)n1ccc(C(=O)N[C@@H](CCOCCCC(=O)N2CCN(CCCCCOc3ccc4c(c3)C(=O)N(C3CCC(=O)NC3=O)C4=O)CC2)C(=O)Nc2nc(-c3ccccc3)cs2)c1` (stereo partly drawn) [Compound 254, (2S)-4-[4-[4-(5-[[2-(2,6-dioxopiperidin-3-yl)-1,3-dioxoisoindol-5-yl]oxy]pentyl)piperazin-1-yl]-4-oxobutoxy]-2-[(1-methanesulfonylpyrrol-3-yl)formamido]-N-(4-phenyl-1,3-thiazol-2-yl)butanamide], for which, in test [1], the DC50 is greater than 10 µM and the Dmax is less than 50%. For the same compound, on HiBit-BRM fusion protein, the DC50 is greater than 10 µM and the “BRM HiBit Degradation Maximum measured” value is on record as “C (‘C’ = Maximum degradation <50%)”.

Turning to `CS(=O)(=O)n1ccc(C(=O)N[C@@H](CCOCCCC(=O)N2CCC3(CC2)CC(Oc2ccc4c(c2)C(=O)N(C2CCC(=O)NC2=O)C4=O)C3)C(=O)Nc2nc(-c3ccccc3)cs2)c1` (stereo partly drawn) [Compound 262, (2S)-4-[4-(2-[[2-(2,6-dioxopiperidin-3-yl)-1,3-dioxoisoindol-5-yl]oxy]-7-azaspiro[3.5]nonan-7-yl)-4-oxobutoxy]-2-[(1-methanesulfonylpyrrol-3-yl)formamido]-N-(4-phenyl-1,3-thiazol-2-yl)butanamide], in test [1], the DC50 is greater than 10 µM and the Dmax is less than 50%. On HiBit-BRM fusion protein, the DC50 was greater than 10 µM and the “BRM HiBit Degradation Maximum measured” value was “C (‘C’ = Maximum degradation <50%)”.
